Laboratory results reported in publication PMC5218480 (PLoS ONE, 2017).

Test system: MV-4-11 cells
Assay: Gene expression microarray analysis (Affymetrix PrimeView) and GSEA
Assay type: cell-based, human
Set-up: RFU PODN (11730768_x_at) / Fold change /veh PODN (11730768_x_at) / RFU LINC00158 (11744669_a_at) / Fold change /veh LINC00158 (11744669_a_at) / RFU DUSP10 (11751237_a_at) / Fold change /veh DUSP10 (11751237_a_at) / RFU ID3 (11757404_x_at) / Fold change /veh ID3 (11757404_x_at) / RFU PLEKHG5 (11737974_s_at) / Fold change /veh PLEKHG5 (11737974_s_at) / RFU LRRC4B (11730491_at) / Fold change /veh LRRC4B (11730491_at) / RFU GIMAP4 (11747438_a_at) / Fold change /veh GIMAP4 (11747438_a_at) / RFU KRT8 (11758183_x_at) / Fold change /veh KRT8 (11758183_x_at) / RFU CNN1 (11734310_a_at) / Fold change /veh CNN1 (11734310_a_at) / RFU VPS37D (11726825_at) / Fold change /veh VPS37D (11726825_at) / RFU C10orf10 (11716522_x_at) / Fold change /veh C10orf10 (11716522_x_at) / RFU KIR2DL2 /// KIR2DL4 /// KIR2DL5A /// KIR2DL5B /// KIR2DS1 /// KIR2DS2 /// KIR2DS3 /// KIR2DS4 /// KIR3DL3 /// KIR3DL3 /// KIR3DS1 (11738374_at) / Fold change /veh KIR2DL2 /// KIR2DL4 /// KIR2DL5A /// KIR2DL5B /// KIR2DS1 /// KIR2DS2 /// KIR2DS3 /// KIR2DS4 /// KIR3DL3 /// KIR3DL3 /// KIR3DS1 (11738374_at) / RFU C1QL1 (11718748_at) / Fold change /veh C1QL1 (11718748_at) / RFU TMPRSS4 (11747572_a_at) / Fold change /veh TMPRSS4 (11747572_a_at) / RFU HAMP (11756126_x_at) / Fold change /veh HAMP (11756126_x_at) / RFU RNFT2 (11725882_a_at) / Fold change /veh RNFT2 (11725882_a_at) / RFU NR4A2 (11747474_a_at) / Fold change /veh NR4A2 (11747474_a_at) / RFU ABCC12 (11746883_a_at) / Fold change /veh ABCC12 (11746883_a_at) / RFU TMEM136 (11760407_x_at) / Fold change /veh TMEM136 (11760407_x_at) / RFU CLDN22 /// WWC2 (11732394_at) / Fold change /veh CLDN22 /// WWC2 (11732394_at) / RFU HLA-DPB1 (11760878_x_at) / Fold change /veh HLA-DPB1 (11760878_x_at) / RFU SPINT1 (11716480_a_at) / Fold change /veh SPINT1 (11716480_a_at) / RFU GAP43 (11754022_s_at) / Fold change /veh GAP43 (11754022_s_at) / RFU A4GNT (11735810_at) / Fold change /veh A4GNT (11735810_at) / RFU PRB3 (11715151_x_at) / Fold change /veh PRB3 (11715151_x_at) / RFU TUBB4B (11761932_at) / Fold change /veh TUBB4B (11761932_at) / RFU CAPN14 (11732068_a_at) / Fold change /veh CAPN14 (11732068_a_at) / RFU TMCC2 (11721928_a_at) / Fold change /veh TMCC2 (11721928_a_at) / RFU IRGQ (11745062_a_at) / Fold change /veh IRGQ (11745062_a_at) / RFU FAM174B (11720279_a_at) / Fold change /veh FAM174B (11720279_a_at) / RFU TMPRSS4 (11748680_a_at) / Fold change /veh TMPRSS4 (11748680_a_at) / RFU FAM212B (11763350_a_at) / Fold change /veh FAM212B (11763350_a_at) / RFU PLEKHG5 (11743358_a_at) / Fold change /veh PLEKHG5 (11743358_a_at) / RFU ZSCAN30 (11745921_a_at) / Fold change /veh ZSCAN30 (11745921_a_at) / RFU CMKLR1 (11741424_a_at) / Fold change /veh CMKLR1 (11741424_a_at) / RFU LOC101060620 /// MAPK8IP1 (11723275_at) / Fold change /veh LOC101060620 /// MAPK8IP1 (11723275_at) / RFU SPTSSB (11747773_x_at) / Fold change /veh SPTSSB (11747773_x_at) / RFU PRSS12 (11739890_at) / Fold change /veh PRSS12 (11739890_at) / RFU BIN1 (11741810_x_at) / Fold change /veh BIN1 (11741810_x_at) / RFU WNT11 (11732464_a_at) / Fold change /veh WNT11 (11732464_a_at) / RFU C10orf10 (11716521_a_at) / Fold change /veh C10orf10 (11716521_a_at) / RFU C5orf56 (11738089_at) / Fold change /veh C5orf56 (11738089_at) / RFU CYB561 (11721691_x_at) / Fold change /veh CYB561 (11721691_x_at) / RFU ANKRD19P (11752326_a_at) / Fold change /veh ANKRD19P (11752326_a_at) / RFU OR2T12 /// OR2T33 /// OR2T8 (11738714_s_at) / Fold change /veh OR2T12 /// OR2T33 /// OR2T8 (11738714_s_at) / RFU VCAN (11748164_a_at) / Fold change /veh VCAN (11748164_a_at) / RFU JSRP1 (11732532_at) / Fold change /veh JSRP1 (11732532_at) / RFU KRTAP10-11 (11738290_x_at) / Fold change /veh KRTAP10-11 (11738290_x_at) / RFU MYO3A (11730013_a_at) / Fold change /veh MYO3A (11730013_a_at) / RFU EBF3 (11725865_a_at) / Fold change /veh EBF3 (11725865_a_at) / RFU CAMK2N1 (11719241_x_at) / Fold change /veh CAMK2N1 (11719241_x_at) / RFU C5orf56 (11738088_a_at) / Fold change /veh C5orf56 (11738088_a_at) / RFU OLFML3 (11715873_a_at) / Fold change /veh OLFML3 (11715873_a_at) / RFU LOC100653217 /// NTM (11731650_a_at) / Fold change /veh LOC100653217 /// NTM (11731650_a_at) / RFU MAPK11 (11762145_a_at) / Fold change /veh MAPK11 (11762145_a_at) / RFU FIZ1 (11724087_x_at) / Fold change /veh FIZ1 (11724087_x_at) / RFU OASL (11726364_x_at) / Fold change /veh OASL (11726364_x_at) / RFU SOX15 (11748057_x_at) / Fold change /veh SOX15 (11748057_x_at) / RFU CD79A (11719716_a_at) / Fold change /veh CD79A (11719716_a_at) / RFU HIST1H1D (11736915_at) / Fold change /veh HIST1H1D (11736915_at) / RFU CASKIN2 (11723855_a_at) / Fold change /veh CASKIN2 (11723855_a_at) / RFU LOC730098 (11760151_x_at) / Fold change /veh LOC730098 (11760151_x_at) / RFU OR4N2 (11742367_at) / Fold change /veh OR4N2 (11742367_at) / RFU PRRT2 (11749266_a_at) / Fold change /veh PRRT2 (11749266_a_at) / RFU SNX32 (11753110_a_at) / Fold change /veh SNX32 (11753110_a_at) / RFU CDHR5 (11726645_a_at) / Fold change /veh CDHR5 (11726645_a_at) / RFU RCAN1 (11760418_a_at) / Fold change /veh RCAN1 (11760418_a_at) / RFU FAM167A (11723789_a_at) / Fold change /veh FAM167A (11723789_a_at) / RFU FAM26E (11764081_at) / Fold change /veh FAM26E (11764081_at) / RFU ISYNA1 (11749810_s_at) / Fold change /veh ISYNA1 (11749810_s_at) / RFU ACY1 (11761880_at) / Fold change /veh ACY1 (11761880_at) / RFU 11764098_at / Fold change /veh 11764098_at / RFU SAMD14 (11745864_x_at) / Fold change /veh SAMD14 (11745864_x_at) / RFU NPB (11741838_a_at) / Fold change /veh NPB (11741838_a_at) / RFU TMPRSS6 (11731388_a_at) / Fold change /veh TMPRSS6 (11731388_a_at) / RFU KRTAP10-2 (11738614_at) / Fold change /veh KRTAP10-2 (11738614_at) / RFU ARHGAP8 /// PRR5-ARHGAP8 (11727945_x_at) / Fold change /veh ARHGAP8 /// PRR5-ARHGAP8 (11727945_x_at) / RFU KRTAP5-7 /// NADSYN1 (11734609_at) / Fold change /veh KRTAP5-7 /// NADSYN1 (11734609_at) / RFU RASL12 (11751679_a_at) / Fold change /veh RASL12 (11751679_a_at) / RFU CDKN2B (11736163_a_at) / Fold change /veh CDKN2B (11736163_a_at) / RFU PRF1 (11729649_at) / Fold change /veh PRF1 (11729649_at) / RFU, ZNF638 /// ZNF638-IT1 / Fold change vs veh, ZNF638 /// ZNF638-IT1 / RFU, PANK3 / Fold change vs veh, PANK3 / RFU, SH3YL1 / Fold change vs veh, SH3YL1 / RFU, ZEB2 / Fold change vs veh, ZEB2 / RFU, NRIP1 / Fold change vs veh, NRIP1 / RFU, PTTG1IP / Fold change vs veh, PTTG1IP / RFU, CAPN2 / Fold change vs veh, CAPN2 / RFU, MED14 / Fold change vs veh, MED14 / RFU, SNORA58 / Fold change vs veh, SNORA58 / RFU, C1orf63 / Fold change vs veh, C1orf63 / RFU, LRRFIP1 / Fold change vs veh, LRRFIP1 / RFU, NDUFAF7 / Fold change vs veh, NDUFAF7 / RFU, SLC12A2 / Fold change vs veh, SLC12A2 / RFU, IBTK / Fold change vs veh, IBTK / RFU, ESF1 / Fold change vs veh, ESF1 / Fold change vs veh, TMEM50B / RFU, TAOK1 / Fold change vs veh, TAOK1 / RFU, ACBD3 / Fold change vs veh, ACBD3 / RFU, TMA16 / Fold change vs veh, TMA16 / RFU, RWDD3 / Fold change vs veh, RWDD3 / RFU, BCAT1 / Fold change vs veh, BCAT1 / RFU, EDEM3 / Fold change vs veh, EDEM3 / RFU, TMEM33 / Fold change vs veh, TMEM33 / RFU, WDR75 / Fold change vs veh, WDR75 / RFU, AHCTF1 / Fold change vs veh, AHCTF1 / RFU, TFRC / Fold change vs veh, TFRC / RFU, ZDHHC17 / Fold change vs veh, ZDHHC17 / RFU, NOM1 / Fold change vs veh, NOM1 / RFU, ARL8B / Fold change vs veh, ARL8B / RFU, ZBTB11 / Fold change vs veh, ZBTB11 / RFU, TAMM41 / Fold change vs veh, TAMM41 / RFU, KIAA1704 /// LOC100996395 / Fold change vs veh, KIAA1704 /// LOC100996395 / RFU, ING1 / Fold change vs veh, ING1 / RFU, TRMT61B / Fold change vs veh, TRMT61B / RFU, FUBP3 / Fold change vs veh, FUBP3 / RFU, TP53 / Fold change vs veh, TP53 / RFU, TNKS2 / Fold change vs veh, TNKS2 / RFU, ZFP14 / Fold change vs veh, ZFP14 / RFU, ACTR2 / Fold change vs veh, ACTR2 / RFU, PPP3R1 / Fold change vs veh, PPP3R1 / RFU, PIK3R1 / Fold change vs veh, PIK3R1 / RFU, HNRNPA1 / Fold change vs veh, HNRNPA1 / RFU, RNF170 / Fold change vs veh, RNF170 / RFU, ZNF28 / Fold change vs veh, ZNF28 / RFU, RNGTT / Fold change vs veh, RNGTT / RFU, OGT / Fold change vs veh, OGT / RFU, BRD1 / Fold change vs veh, BRD1 / RFU, MARS / Fold change vs veh, MARS / RFU, ZNF655 / Fold change vs veh, ZNF655 / RFU, FAHD1 / Fold change vs veh, FAHD1 / RFU, BDP1 / Fold change vs veh, BDP1 / RFU, LRRCC1 / Fold change vs veh, LRRCC1 / RFU, ARID1A / Fold change vs veh, ARID1A / RFU, ZNF146 / Fold change vs veh, ZNF146 / RFU, ZNF330 / Fold change vs veh, ZNF330 / RFU, GPN3 / Fold change vs veh, GPN3 / RFU, C9orf123 / Fold change vs veh, C9orf123 / RFU, N4BP2L2 / Fold change vs veh, N4BP2L2 / RFU, ARFIP1 / Fold change vs veh, ARFIP1 / RFU, FAM179B / Fold change vs veh, FAM179B / RFU, BCL10 / Fold change vs veh, BCL10 / RFU, UHRF1BP1L / Fold change vs veh, UHRF1BP1L / RFU, BET1 / Fold change vs veh, BET1 / RFU, CNOT2 / Fold change vs veh, CNOT2 / RFU, ZNF268 / Fold change vs veh, ZNF268 / Fold change vs veh, ZNF507 / RFU, DGCR2 / Fold change vs veh, DGCR2 / RFU, WDSUB1 / Fold change vs veh, WDSUB1 / Fold change vs veh, HSP90B1 /// MIR3652 / RFU, ADSS / Fold change vs veh, ADSS / RFU, GK / Fold change vs veh, GK / RFU, ZNF148 / Fold change vs veh, ZNF148 / RFU, TAF9 / Fold change vs veh, TAF9 / RFU, SLC1A5 / Fold change vs veh, SLC1A5 / RFU, SLMO2 / Fold change vs veh, SLMO2 / RFU, ABCC4 / Fold change vs veh, ABCC4 / RFU, LOC101060439 /// RAP1B / Fold change vs veh, LOC101060439 /// RAP1B / RFU, RFX7 / Fold change vs veh, RFX7 / RFU, GTPBP10 / Fold change vs veh, GTPBP10 / RFU, CNEP1R1 / Fold change vs veh, CNEP1R1 / RFU, BIVM-ERCC5 /// ERCC5 / Fold change vs veh, BIVM-ERCC5 /// ERCC5 / RFU, ILF3 / Fold change vs veh, ILF3 / RFU 11762660_at / Fold change /veh 11762660_at / RFU VCAN (11757783_s_at) / Fold change /veh VCAN (11757783_s_at) / RFU DDX43 (11728927_at) / Fold change /veh DDX43 (11728927_at) / RFU KRT8 (11758188_x_at) / Fold change /veh KRT8 (11758188_x_at) / RFU NKD1 (11759106_at) / Fold change /veh NKD1 (11759106_at) / RFU SRD5A1 (11742802_a_at) / Fold change /veh SRD5A1 (11742802_a_at) / RFU TPSAB1 /// TPSB2 (11721975_s_at) / Fold change /veh TPSAB1 /// TPSB2 (11721975_s_at) / RFU GSTM3 (11746129_a_at) / Fold change /veh GSTM3 (11746129_a_at) / RFU IL23R (11737362_x_at) / Fold change /veh IL23R (11737362_x_at) / RFU TMEM51 (11727254_a_at) / Fold change /veh TMEM51 (11727254_a_at) / RFU PIWIL2 (11732686_x_at) / Fold change /veh PIWIL2 (11732686_x_at) / RFU ORM1 (11744905_x_at) / Fold change /veh ORM1 (11744905_x_at) / RFU CCDC152 (11743942_at) / Fold change /veh CCDC152 (11743942_at) / RFU ECM1 (11717891_a_at) / Fold change /veh ECM1 (11717891_a_at) / RFU IL23R (11748794_a_at) / Fold change /veh IL23R (11748794_a_at) / RFU TNFAIP8L3 (11732012_x_at) / Fold change /veh TNFAIP8L3 (11732012_x_at) / RFU MBOAT4 (11741988_at) / Fold change /veh MBOAT4 (11741988_at) / RFU 11764193_at / Fold change /veh 11764193_at / RFU TMEM53 (11763286_at) / Fold change /veh TMEM53 (11763286_at) / RFU MAGEB2 (11727129_at) / Fold change /veh MAGEB2 (11727129_at) / RFU TMEM200A (11744735_a_at) / Fold change /veh TMEM200A (11744735_a_at) / RFU CCDC152 (11751479_a_at) / Fold change /veh CCDC152 (11751479_a_at) / RFU FAM211A (11726209_a_at) / Fold change /veh FAM211A (11726209_a_at) / RFU RGS16 (11746705_a_at) / Fold change /veh RGS16 (11746705_a_at) / RFU VCAN (11755009_s_at) / Fold change /veh VCAN (11755009_s_at) / RFU RHOB (11743442_s_at) / Fold change /veh RHOB (11743442_s_at) / RFU RGS16 (11720943_a_at) / Fold change /veh RGS16 (11720943_a_at) / RFU RGS16 (11720944_at) / Fold change /veh RGS16 (11720944_at) / RFU, VPS4B / Fold change vs veh, VPS4B / RFU, CREB1 / Fold change vs veh, CREB1 / RFU, DNAJC13 / Fold change vs veh, DNAJC13 / RFU, GNAQ / Fold change vs veh, GNAQ / RFU, CDK5R1 / Fold change vs veh, CDK5R1 / RFU, ZRANB3 / Fold change vs veh, ZRANB3 / RFU, CUL4A / Fold change vs veh, CUL4A / RFU, CCNY / Fold change vs veh, CCNY / RFU, UFL1 / Fold change vs veh, UFL1 / RFU, COG3 / Fold change vs veh, COG3 / RFU, DIAPH2 / Fold change vs veh, DIAPH2 / RFU, SKA2 / Fold change vs veh, SKA2 / RFU, AFF3 / Fold change vs veh, AFF3 / RFU, LMF1 / Fold change vs veh, LMF1 / RFU, IPO11 / Fold change vs veh, IPO11 / RFU, DFFB / Fold change vs veh, DFFB / RFU, FOXP1 / Fold change vs veh, FOXP1 / RFU, CARD8 / Fold change vs veh, CARD8 / RFU, STRN3 / Fold change vs veh, STRN3 / RFU, ADK / Fold change vs veh, ADK / RFU, RASSF2 / Fold change vs veh, RASSF2 / RFU, WIPF1 / Fold change vs veh, WIPF1 / RFU, LARP1B / Fold change vs veh, LARP1B / RFU, RASA1 / Fold change vs veh, RASA1 / RFU, RB1 / Fold change vs veh, RB1 / RFU, PPFIA1 / Fold change vs veh, PPFIA1 / RFU, MAT2A / Fold change vs veh, MAT2A / RFU, CCT5 / Fold change vs veh, CCT5 / RFU, WDR92 / Fold change vs veh, WDR92 / RFU, CUX1 / Fold change vs veh, CUX1 / RFU, TTC7A / Fold change vs veh, TTC7A / RFU, TMEM135 / Fold change vs veh, TMEM135 / RFU, DEPTOR / Fold change vs veh, DEPTOR / RFU, CPM / Fold change vs veh, CPM / RFU, DNAJB6 / Fold change vs veh, DNAJB6 / RFU, CACNA2D3 / Fold change vs veh, CACNA2D3 / RFU, DTX4 / Fold change vs veh, DTX4 / RFU, TFCP2 / Fold change vs veh, TFCP2 / RFU, GMCL1 /// GMCL1P1 / Fold change vs veh, GMCL1 /// GMCL1P1 / RFU, AEBP2 / Fold change vs veh, AEBP2 / RFU, SNHG1 /// SNORD22 /// SNORD25 /// SNORD26 /// SNORD27 /// SNORD28 /// SNORD29 /// SNORD31 / Fold change vs veh, SNHG1 /// SNORD22 /// SNORD25 /// SNORD26 /// SNORD27 /// SNORD28 /// SNORD29 /// SNORD31 / Fold change (Aza/veh), C12orf56 (ProbeSet 11735607_a_at) / Fold change (ACY-1035/veh), C12orf56 (ProbeSet 11735607_a_at) / Fold change (Aza/veh), FGFR1OP (ProbeSet 11751329_s_at) / Fold change (ACY-1035/veh), FGFR1OP (ProbeSet 11751329_s_at) / Fold change (Aza/veh), VPS36 (ProbeSet 11739960_a_at) / Fold change (ACY-1035/veh), VPS36 (ProbeSet 11739960_a_at) / RFU SYPL1 (11715823_x_at) / Fold change /veh SYPL1 (11715823_x_at) / RFU IGFBP7 (11715501_s_at) / Fold change /veh IGFBP7 (11715501_s_at) / RFU REEP3 (11722064_at) / Fold change /veh REEP3 (11722064_at) / RFU IGLL1 (11728026_x_at) / Fold change /veh IGLL1 (11728026_x_at): dose or concentration left out as unconfirmed
Conditions: MV-4-11 cells, 48 hours

Nc1ccc(-c2cccs2)cc1NC(=O)c1ccc2c(c1)cc(C1CC1)n2CCN1CCOCC1 [ACY-1035]
RFU KRTAP10-2 (11738614_at): 11.58 RFU
